Common to all, as to test: NCI-60 cell line screen, 48 h
The subject of test [1] is 786-0.
In test [2] the test system is ACHN.
The subject of test [3] is CCRF-CEM.
Test [4] relates to DU-145.
The test system of test [5] is HCC 2998.
Test [6] relates to KM12.
The subject of test [7] is LOX IMVI.
Test [8] deals with MDA-N.
The test system of test [9] is SF-295.
The test system of test [10] is SF-539.
In test [11] the test system is SNB-19.
Test [12] has as its system SNB-75.
Test [13] relates to SW-620.
In test [14] the test system is UACC-257.
The test system of test [15] is HOP-92.
The subject of test [16] is NCI/ADR-RES.
Test [17] concerns OVCAR-4.
Test [18] deals with OVCAR-5.
Test [19] concerns RXF 393.
Test [20] has as its system SK-MEL-2.

The text below walks through data of ChEMBL document CHEMBL1201862, “PubChem BioAssay data set” (2004).

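Cells were grown in 96-well plates and exposed to each compound for 48 hours at five concentrations; endpoints were interpolated linearly between bracketing concentrations, or set to the highest concentration if not reached. GI50 = concentration required for 50% inhibition of growth.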 Calls of active or inactive are those of the source. Rule as the data show it: active = GI50 up to about 1.1 µM and inactive = higher.

On to `COc1ccc(C2SC(=N)Nc3c2c(C)nn3C(=O)Cc2ccccc2)cc1` (configuration not stated), for which the GI50 in [1], in test [2], in [3], in [4], in test [5] and in test [6] was > 100 µM (inactive) throughout. The GI50 is > 100 µM (inactive) in test [7]; > 100 µM (inactive) in test [8]; > 100 µM (inactive) in [9]; > 100 µM (inactive) in [10]; > 100 µM (inactive) in test [11]; 10.9 µM (inactive) in [12]. Also, the GI50 in test [13] and in test [14] was > 100 µM (inactive) each time.
For `Cc1cc2c3c(nc4ccccc42)C(=O)c2ccccc2-c3n1`, the GI50 in [1] is 25.5 µM (inactive); in [2], 12.2 µM (inactive); in test [3], 5.16 µM (inactive); in [4], 23.5 µM (inactive); in [5] it was 20.1 µM (inactive); in test [15], 19.3 µM (inactive). Moreover, the GI50 in test [6] was 1.02 µM (active); in test [16], 6.53 µM (inactive); in test [17] it was 25.4 µM (inactive); in test [18], 32 µM (inactive); in test [19] it was 20.3 µM (inactive); in test [9] it was 10.1 µM (inactive). The GI50 in test [10] is 19.3 µM (inactive); in test [20], 17.9 µM (inactive); in [11], 45.8 µM (inactive); in test [12] it was 4.37 µM (inactive); in test [13] it was 9.48 µM (inactive); in test [14], 22.8 µM (inactive).
As for `CCOC(=O)CCC(NC(=O)OCc1ccccc1)C(=O)NC(CCC(=O)OCC)C(=O)NC(CCC(=O)OCC)C(=O)NC(CCC(=O)OCC)C(=O)NC(CCC(=O)OCC)C(=O)OCC` (configuration not stated), the GI50 in test [1], in [2], in [3], in test [4], in test [6] and in test [7] was > 100 µM (inactive) each time. Also, the GI50 in [8], in [16], in test [17], in [18], in [19] and in test [9] was > 100 µM (inactive) each time. Besides, the GI50 in test [20], in test [12], in test [13] and in test [14] was > 100 µM (inactive) in each case.
Consider `C=C(C)[C@H]1C=C[C@@H](OC(C)=O)[C@@]2(COC(C)=O)[C@H](OC(=O)CCC)[C@H]3[C@@H](OC(C)=O)[C@@H](C)C[C@]3(O)C(=O)[C@@](C)(OC(C)=O)[C@H]12`, for which the GI50 in [1] was 39.7 µM (inactive); in test [2], 34.2 µM (inactive); in test [3] it was 42.4 µM (inactive); in [5], 27.1 µM (inactive); in [15], 3.53 µM (inactive); in test [6] it was 39.9 µM (inactive). Besides, the GI50 was 29.5 µM (inactive) in test [7]; 42.5 µM (inactive) in test [16]; 35.6 µM (inactive) in [17]; 60.4 µM (inactive) in test [18]; > 100 µM (inactive) in test [19]; 87.3 µM (inactive) in test [20]. Besides, the GI50 was 66.2 µM (inactive) in test [11], 46 µM (inactive) in test [12], 55 µM (inactive) in [13] and 39.4 µM (inactive) in test [14].
`CC1=N[C@](C)(C2CC3C=CC2C3=O)COC1=O` (some centres not stated): the GI50 in test [1], in test [2], in test [3], in [4], in test [5] and in test [15] was > 100 µM (inactive) in each case. The GI50 in test [6], in [8], in test [17], in test [18], in test [19] and in test [9] was > 100 µM (inactive) in each case. Also, the GI50 in [10], in test [11], in test [12], in test [13] and in test [14] was > 100 µM (inactive) in each case.
With `CC(Cc1ccc(O)cc1)NCC(O)c1ccc(O)c(O)c1` (configuration not stated), the GI50 in test [1], in test [2], in test [3], in [4], in test [15] and in [6] was > 100 µM (inactive) each time. Besides, the GI50 in [7], in test [16], in test [17], in test [18], in test [19] and in [9] was > 100 µM (inactive) each time. The GI50 in [10], in test [20], in test [11], in [12], in [13] and in test [14] was > 100 µM (inactive) each time.
For the compound `C/C=C/C#CC#C/C=C/C=C/C(O)CCO` (configuration not stated), the GI50 in [1], in test [2], in test [3], in test [5], in [15] and in test [6] was > 23.1 µM (inactive) throughout. Moreover, the GI50 in [7] is > 23.1 µM (inactive); in test [17], > 23.1 µM (inactive); in test [18], > 23.1 µM (inactive); in test [19] it was > 23.1 µM (inactive); in test [9] it was > 18.7 µM (inactive); in test [10], > 23.1 µM (inactive). For the same compound, the GI50 is > 23.1 µM (inactive) in [20]; > 23.1 µM (inactive) in test [11]; 17.7 µM (inactive) in test [12]; > 23.1 µM (inactive) in test [13]; > 23.1 µM (inactive) in [14].
In the case of `O=C1[C@H](O)[C@@H]2C(O)O[C@H]3[C@@H]2N1C[C@H]3[Si](c1ccccc1)(c1ccccc1)c1ccccc1` (some centres not stated), the GI50 in [1], in test [2], in test [4], in [5], in test [6] and in test [7] was > 100 µM (inactive) in each case. Besides, the GI50 in [16] was > 100 µM (inactive); in test [17], > 100 µM (inactive); in [18], > 100 µM (inactive); in test [19] it was 20.2 µM (inactive); in [9], > 100 µM (inactive); in test [10], > 100 µM (inactive). The GI50 was > 100 µM (inactive) in test [20]; > 100 µM (inactive) in [11]; 5.94 µM (inactive) in [12]; > 100 µM (inactive) in test [13]; > 100 µM (inactive) in [14].
As for `O=C1C(=CNc2ccccc2Cl)C(=O)N(c2ccccc2)C(=O)N1c1ccccc1`, the GI50 in test [1], in test [2], in [3], in test [5], in [15] and in test [6] was > 100 µM (inactive) in each case. The GI50 in test [7], in test [8], in [16], in test [17], in [18] and in [19] was > 100 µM (inactive) each time. Further, the GI50 in test [9] is > 100 µM (inactive); in test [10], > 100 µM (inactive); in [20] it was 27.9 µM (inactive); in test [11], > 100 µM (inactive); in test [13] it was > 100 µM (inactive); in test [14], > 100 µM (inactive).
Take `COC(=O)CCCc1ccc2c(c1)CC1(C2)Cc2cc3c(cc2C1)CCCC3`: the GI50 in test [1] is 43.9 µM (inactive); in [2] it was 42.7 µM (inactive); in test [5], 26.7 µM (inactive); in test [15] it was 26.1 µM (inactive); in test [6], 36.9 µM (inactive); in test [7] it was 30.3 µM (inactive). The GI50 in test [8] was 16.8 µM (inactive); in test [16], 47.6 µM (inactive); in test [17] it was 42.5 µM (inactive); in [18], > 100 µM (inactive); in test [19], 24.7 µM (inactive); in [9], 45.7 µM (inactive). Further, the GI50 was 37.8 µM (inactive) in test [10], 22.6 µM (inactive) in test [20] and 33.8 µM (inactive) in [14].
Regarding `CCc1ccccc1NC(=O)C1=C(C)NC(C)=C(C(=O)Nc2c(CC)cccc2CC)C1c1ccc2c(c1)OCO2` (configuration not stated), the GI50 in [1] was 18.3 µM (inactive); in test [2], 20.5 µM (inactive); in test [3], 19.1 µM (inactive); in [5], 16.5 µM (inactive); in [15], 12.7 µM (inactive); in test [6], 16.1 µM (inactive). Besides, the GI50 was 16.9 µM (inactive) in [7]; 15.2 µM (inactive) in [17]; 18.2 µM (inactive) in test [18]; 12.4 µM (inactive) in test [19]; 20.3 µM (inactive) in [9]; 21.2 µM (inactive) in [10]. The GI50 in test [20] is 15.2 µM (inactive); in test [11], 24.9 µM (inactive); in test [12], 21.8 µM (inactive); in test [13], 18.1 µM (inactive); in test [14] it was 17.7 µM (inactive).
Turning to `Cc1nc(O)nc(N/N=C/c2c3ccccc3c(Cl)c3ccccc23)c1C(=O)Nc1ccc(Cl)cc1`, the GI50 in test [1] was 36 µM (inactive); in test [2], 33.8 µM (inactive); in test [3], 32.3 µM (inactive); in test [4], > 100 µM (inactive); in test [5] it was 44.6 µM (inactive); in test [7], 38.9 µM (inactive). In addition, the GI50 in [8] is > 100 µM (inactive); in test [17] it was 45.5 µM (inactive); in [18], > 100 µM (inactive); in test [20], > 100 µM (inactive); in test [11], 92.5 µM (inactive); in test [12], > 100 µM (inactive). Also, the GI50 in test [13] is 52.6 µM (inactive); in [14], > 100 µM (inactive).
